The text below walks through data of the supplement of paper PMC10307832.

Holding throughout (assay): relative viability (nuclei count vs DMSO), 5 days (fraction); higher = more cells survive
Compound in assay [1]: CCn1c(-c2nonc2N)nc2cnc(Oc3cccc(NC(=O)c4ccc(OCCN5CCOCC5)cc4)c3)cc21 + Cc1cc(Nc2cc(N3CCN(C)CC3)nc(Sc3ccc(NC(=O)C4CC4)cc3)n2)n[nH]1 [Tozasertib] (partner 0.1 µM)
In short, it runs like this:
(§1)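 Five library-drug doses in √10 steps were combined with a fixed anchor-drug dose, or a single drug was given alone, by pin tool to lung cancer cell lines in 1536-well plates the day after seeding. Nuclei were stained and counted after 5 days. Relative viability is the nuclei count in treated wells over that in vehicle wells, taken as the median of duplicate plates.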

Compound in assay [2]: CCC1=CN=CN=C1N2CCN(CC2)CC3=NC4=C(N3)C=C(C=C4)C(F)(F)F + COc1cc2c(Oc3ccc(NC(=O)C4(C(=O)Nc5ccc(F)cc5)CC4)cc3F)ccnc2cc1OCCCN1CCOCC1 [Foretinib] (partner 0.25 µM)
In short, it runs like this:
as §1

Compound in assay [3]: CCC1=CN=CN=C1N2CCN(CC2)CC3=NC4=C(N3)C=C(C=C4)C(F)(F)F + CS(=O)(=O)CCNCc1ccc(-c2ccc3ncnc(Nc4ccc(OCc5cccc(F)c5)c(Cl)c4)c3c2)o1 [Lapatinib] (partner 2 µM)
In short, it runs like this: as §1

Compound in assay [4]: CCn1c(-c2nonc2N)nc2cnc(Oc3cccc(NC(=O)c4ccc(OCCN5CCOCC5)cc4)c3)cc21 + Nc1ncn([C@H]2C[C@H](O)[C@@H](CO)O2)c(=O)n1 [Decitabine] (partner 2 µM)
In short, it runs like this: as §1

With NCI-H3122, the relative viability in assay [1] (first compound 0.04 µM) was determined as 0.501; in assay [1] (first compound 0.1265 µM), 0.395; in assay [1] (first compound 0.4 µM) it was 0.385; in assay [1] (first compound 1.265 µM) it was 0.332; in assay [1] (first compound 4 µM), 0.325; in assay [2] (first compound 0.04 µM) it was 0.924. The relative viability in assay [2] (first compound 0.1265 µM) stood at 0.968; in assay [2] (first compound 0.4 µM) it was 0.94; in assay [2] (first compound 1.265 µM), 0.978; in assay [2] (first compound 4 µM), 0.977; in assay [3] (first compound 0.04 µM) it was 1.11; in assay [3] (first compound 0.1265 µM), 0.992. The relative viability in assay [3] (first compound 0.4 µM) is 1; in assay [3] (first compound 1.265 µM), 1.03; in assay [3] (first compound 4 µM) it was 0.961; in assay [4] (first compound 0.04 µM), 0.429; in assay [4] (first compound 0.1265 µM), 0.428; in assay [4] (first compound 0.4 µM) it was 0.49. The figures for the relative viability in assay [4] (first compound 1.265 µM) and in assay [4] (first compound 4 µM) were 0.401 and 0.42, respectively.

Consider PC-3 [JPC-3], for which the relative viability in assay [1] (first compound 0.04 µM) was found to be 0.94; in assay [1] (first compound 0.1265 µM), 0.866; in assay [1] (first compound 0.4 µM), 1.03; in assay [1] (first compound 1.265 µM) it was 0.861; in assay [1] (first compound 4 µM) it was 0.77; in assay [2] (first compound 0.04 µM) it was 1.08. In addition, the relative viability in assay [2] (first compound 0.1265 µM) was 0.9; in assay [2] (first compound 0.4 µM), 0.997; in assay [2] (first compound 1.265 µM), 0.964; in assay [2] (first compound 4 µM) it was 0.971; in assay [3] (first compound 0.04 µM), 0.473; in assay [3] (first compound 0.1265 µM), 0.425. For the same cell line, the relative viability in assay [3] (first compound 0.4 µM) is 0.374; in assay [3] (first compound 1.265 µM), 0.441; in assay [3] (first compound 4 µM) it was 0.523; in assay [4] (first compound 0.04 µM), 0.803; in assay [4] (first compound 0.1265 µM), 0.764; in assay [4] (first compound 0.4 µM), 0.764. The figures for the relative viability in assay [4] (first compound 1.265 µM) and in assay [4] (first compound 4 µM) were 0.655 and 0.725, respectively.

For PC-14, the relative viability in assay [1] (first compound 0.04 µM) stood at 0.691; in assay [1] (first compound 0.1265 µM), 0.47; in assay [1] (first compound 0.4 µM), 0.422; in assay [1] (first compound 1.265 µM), 0.326; in assay [1] (first compound 4 µM), 0.321; in assay [2] (first compound 0.04 µM) it was 1.01. Besides, the relative viability in assay [2] (first compound 0.1265 µM) stood at 0.825; in assay [2] (first compound 0.4 µM), 0.947; in assay [2] (first compound 1.265 µM), 0.963; in assay [2] (first compound 4 µM), 0.997; in assay [3] (first compound 0.04 µM), 0.34; in assay [3] (first compound 0.1265 µM), 0.264. The relative viability turned out to be 0.304 in assay [3] (first compound 0.4 µM); 0.246 in assay [3] (first compound 1.265 µM); 0.329 in assay [3] (first compound 4 µM); 0.238 in assay [4] (first compound 0.04 µM); 0.252 in assay [4] (first compound 0.1265 µM); 0.217 in assay [4] (first compound 0.4 µM). The results for the relative viability in assay [4] (first compound 1.265 µM) and in assay [4] (first compound 4 µM) were 0.213 and 0.286, respectively.

With RERF-LC-KJ, the relative viability stood at 0.528 in assay [1] (first compound 0.04 µM); 0.318 in assay [1] (first compound 0.1265 µM); 0.283 in assay [1] (first compound 0.4 µM); 0.249 in assay [1] (first compound 1.265 µM); 0.217 in assay [1] (first compound 4 µM); 0.763 in assay [2] (first compound 0.04 µM). The relative viability turned out to be 0.755 in assay [2] (first compound 0.1265 µM); 0.82 in assay [2] (first compound 0.4 µM); 0.851 in assay [2] (first compound 1.265 µM); 0.82 in assay [2] (first compound 4 µM); 0.81 in assay [3] (first compound 0.04 µM); 0.811 in assay [3] (first compound 0.1265 µM). Further, the relative viability stood at 0.863 in assay [3] (first compound 0.4 µM); 0.79 in assay [3] (first compound 1.265 µM); 0.825 in assay [3] (first compound 4 µM); 0.621 in assay [4] (first compound 0.04 µM); 0.695 in assay [4] (first compound 0.1265 µM); 0.588 in assay [4] (first compound 0.4 µM). Besides, the relative viability in assay [4] (first compound 1.265 µM) was found to be 0.452; in assay [4] (first compound 4 µM), 0.29.

For SK-LU-1, the relative viability in assay [1] (first compound 0.04 µM) was 0.402; in assay [1] (first compound 0.1265 µM), 0.371; in assay [1] (first compound 0.4 µM), 0.29; in assay [1] (first compound 1.265 µM), 0.238; in assay [1] (first compound 4 µM) it was 0.218; in assay [2] (first compound 0.04 µM), 0.876. Moreover, the relative viability in assay [2] (first compound 0.1265 µM) was determined as 0.785; in assay [2] (first compound 0.4 µM), 0.76; in assay [2] (first compound 1.265 µM) it was 0.813; in assay [2] (first compound 4 µM), 0.77; in assay [3] (first compound 0.04 µM), 0.924; in assay [3] (first compound 0.1265 µM), 0.855. For the same cell line, the relative viability in assay [3] (first compound 0.4 µM) was found to be 0.926; in assay [3] (first compound 4 µM), 0.902; in assay [4] (first compound 0.04 µM), 0.628; in assay [4] (first compound 0.1265 µM), 0.571; in assay [4] (first compound 0.4 µM) it was 0.423; in assay [4] (first compound 1.265 µM) it was 0.459. In assay [4] (first compound 4 µM), the relative viability came out at 0.424.

Consider SK-MES-1, for which the relative viability in assay [1] (first compound 0.04 µM) worked out at 0.811; in assay [1] (first compound 0.1265 µM) it was 0.657; in assay [1] (first compound 0.4 µM) it was 0.518; in assay [1] (first compound 1.265 µM) it was 0.228; in assay [1] (first compound 4 µM), 0.21; in assay [2] (first compound 0.04 µM) it was 0.917. Also, the relative viability stood at 0.925 in assay [2] (first compound 0.1265 µM); 0.909 in assay [2] (first compound 0.4 µM); 0.829 in assay [2] (first compound 1.265 µM); 0.882 in assay [2] (first compound 4 µM); 0.487 in assay [3] (first compound 0.04 µM); 0.432 in assay [3] (first compound 0.1265 µM). Moreover, the relative viability is 0.749 in assay [3] (first compound 0.4 µM); 0.43 in assay [3] (first compound 1.265 µM); 0.428 in assay [3] (first compound 4 µM); 0.348 in assay [4] (first compound 0.04 µM); 0.375 in assay [4] (first compound 0.1265 µM); 0.372 in assay [4] (first compound 0.4 µM). The relative viability in assay [4] (first compound 1.265 µM) came to 0.358; in assay [4] (first compound 4 µM), 0.333.

As for SW 1573, the relative viability amounted to 0.255 in assay [1] (first compound 0.04 µM); 0.149 in assay [1] (first compound 0.1265 µM); 0.12 in assay [1] (first compound 0.4 µM); 0.145 in assay [1] (first compound 1.265 µM); 0.0839 in assay [1] (first compound 4 µM); 0.732 in assay [2] (first compound 0.04 µM). Further, the relative viability in assay [2] (first compound 0.1265 µM) came to 0.863; in assay [2] (first compound 0.4 µM) it was 0.912; in assay [2] (first compound 1.265 µM) it was 0.815; in assay [2] (first compound 4 µM), 0.8; in assay [3] (first compound 0.04 µM) it was 1.12; in assay [3] (first compound 0.1265 µM) it was 0.949. The relative viability in assay [3] (first compound 0.4 µM) was 1; in assay [3] (first compound 1.265 µM) it was 1; in assay [3] (first compound 4 µM), 1.08; in assay [4] (first compound 0.04 µM), 0.476; in assay [4] (first compound 0.1265 µM), 0.466; in assay [4] (first compound 0.4 µM), 0.365. For the same cell line, the relative viability in assay [4] (first compound 1.265 µM) stood at 0.23; in assay [4] (first compound 4 µM), 0.173.
